Results published in patent US6815546B2, “Analogues of camptothecin, their use as medicaments and the pharmaceutical compositions containing them” (Societe de Recherches et d'Applications Scientifiques …, priority 1995, dated 2004).

Each molecule was assayed on Adenocarcinoma HT29 cells from the human colon (assay: Adenocarcinoma HT29 cell proliferation, WST1 (compounds in DMA)). Details: 72 hours, final DMA 0.1% (v/v).
Assay type: cell-based
Description: c. Adenocarcinoma HT29 cells from the human colon are cultured in a single layer at 37° in a humidified atmosphere containing 95% of air and 5% of CO2, in a modified essential Earle's medium at 4.5 g/l (Gibco, Paisley, United Kingdom); completed with 10% of inactivated foetal calf serum, 2 mM of glutamine, and 50 μg/ml of gentamycin (Gibco, Paisley, United Kingdom).
Approximately 2000 cells are seeded with the culture medium above in the wells of a microplate (96 wells, flat-bottomed) and incubated for 24 hours. Solutions in N,N-dimethyl-acetamide (DMA) of each of the examples of the invention, diluted in the culture medium so that the final concentration of DMA is 0.1% (v/v), are added to the plate cultures in order to obtain final concentration ranges from 1×10^−13 to 1×10^−5 M, and the cells are incubated for 72 hours.
The WST1 staining reagent, (Boehringer Mannheim, Germany) is then added to each well at a final concentration of 9%, and the cells are incubated for 2 hours at 37° C. This stage allows the mitochondrial deshydrogenase of the living cells to convert WST1 orange tetrazolium salt into crimson formazan. The resulting stained solutions are quantified by dual-beam detection ([…]) using a multi-cuvette scanning spectrophotometer.
The results shown in the following table III C) are expressed in terms of inhibitory concentration at 50% (IC50, in nM), accompanied by a confidence interval.

Compared with `CC[C@@]1(O)CC(=O)OCc2c1cc1n(c2=O)Cc2c-1nc1ccccc1c2Cl` [Example 160, (5R)-12-chloro-5-ethyl-5-hydroxy-4,5,13,15-tetrahydro-1H,3H-oxepino[3′,4′:6,7]indolizino[1,2-b]quinoleine-3,15-dione], `CC[C@@]1(O)CC(=O)OCc2c1cc1n(c2=O)Cc2c-1nc1cc(F)ccc1c2CC(C)C` [Example 162, (5R)-5-ethyl-9-fluoro-5-hydroxy-12-isobutyl-4,5,13,15-tetrahydro-1H,3H-oxepino[3′,4′:6,7]indolizino[1,2-b]quinoleine-3,15-dione] is 2.2-fold higher in IC50: 5.5 nM for the first, 12 nM for the second. The first is the more potent here.

Going from `CC[C@@]1(O)CC(=O)OCc2c1cc1n(c2=O)Cc2c-1nc1cc(F)ccc1c2CC(C)(C)C` [Example 163, (5R)-5-ethyl-9-fluoro-5-hydroxy-12-neopentyl-4,5,13,15-tetrahydro-1H,3H-oxepino[3′,4′:6,7]indolizino[1,2-b]quinoleine-3,15-dione] to `CC[C@@]1(O)CC(=O)OCc2c1cc1n(c2=O)Cc2c-1nc1cc(F)ccc1c2-c1cccc(F)c1` [Example 164, (5R)-5-ethyl-9-fluoro-12-(3-fluorophenyl)-5-hydroxy-4,5,13,15-tetrahydro-1H,3H-oxepino[3′,4′:6,7]indolizino[1,2-b]quinoleine-3,15-dione], the IC50 falls from 6 nM to 2.7 nM (2.2-fold). The second is the more potent here.

Going from `CC[C@@]1(O)CC(=O)OCc2c1cc1n(c2=O)Cc2c-1nc1cc(F)ccc1c2-c1ccc(C(F)(F)F)cc1` [Example 165, (5R)-5-ethyl-9-fluoro-5-hydroxy-12-(4-trifluoromethylphenyl)-4,5,13,15-tetrahydro-1H,3H-oxepino[3′,4′:6,7]indolizino[1,2-b]quinoleine-3,15-dione] to `CC[C@@]1(O)CC(=O)OCc2c1cc1n(c2=O)Cc2c-1nc1cc(F)ccc1c2-c1ccc(OC(F)(F)F)cc1` [Example 166, (5R)-5-ethyl-9-fluoro-5-hydroxy-12-(4-trifluoromethoxyphenyl)-4,5,13,15-tetrahydro-1H,3H-oxepino[3′,4′:6,7]indolizino[1,2-b]quinoleine-3,15-dione], the IC50 rises from 1.7 nM to 8.9 nM (5.2-fold). The first is the more potent here.

Compared with `CC[C@@]1(O)CC(=O)OCc2c1cc1n(c2=O)Cc2c-1nc1cc(F)ccc1c2-c1ccc(N(C)C)cc1` [Example 167, (5R)-12-(4-dimethylaminophenyl)-5-ethyl-9-fluoro-5-hydroxy-4,5,13,15-tetrahydro-1H,3H-oxepino[3′,4′:6,7]indolizino [1,2-b]quinoleine-3,15-dione], `CCCc1c2c(nc3cc(F)cc(F)c13)-c1cc3c(c(=O)n1C2)COC(=O)C[C@]3(O)CC` [Example 169, (5R)-5-ethyl-9,11-difluoro-5-hydroxy-12-propyl-4,5,13,15-tetrahydro-1H,3H-oxepino[3′,4′:6,7]indolizino[1,2-b]quinoleine-3,15-dione] is 5.7-fold lower in IC50: 13 nM for the first, 2.3 nM for the second. The second is the more potent here.

Compared with `CCOCCc1c2c(nc3cc(F)cc(F)c13)-c1cc3c(c(=O)n1C2)COC(=O)C[C@]3(O)CC` [Example 170, (5R)-12-(2-ethoxyethyl)-5-ethyl-9,11-difluoro-5-hydroxy-4,5,13,15-tetrahydro-1H,3H-oxepino[3′,4′:6,7]indolizino[1,2-b]quinoleine-3,15-dione], `CC[C@@]1(O)CC(=O)OCc2c1cc1n(c2=O)Cc2cc3c(F)c(F)c(F)cc3nc2-1` [Example 171, (5R)-5-ethyl-9,10,11-trifluoro-5-hydroxy-4,5,13,15-tetrahydro-1H,3H-oxepino[3′,4′:6,7]indolizino[1,2-b]quinoleine-3,15-dione] is 9.6-fold higher in IC50: 0.85 nM for the first, 8.2 nM for the second. The first is the more potent here.

Same assay, conditions: Homo sapiens, HT-29, 72 hours, final DMA 0.1% (v/v)

`CC[C@@]1(O)CC(=O)OCc2c1cc1n(c2=O)Cc2c-1nc1ccccc1c2CC[Si](C)(C)C` [Example 104, (5R)-5-ethyl-5-hydroxy-12-(2-trimethylsilylethyl)-4,5,13,15-tetrahydro-1H,3H-oxepino[3′,4′:6,7]indolizino[1,2-b]quinoline-3,15-dione] and `CCCCc1c2c(nc3cc(F)ccc13)-c1cc3c(c(=O)n1C2)COC(=O)C[C@]3(O)CC` [Example 105, (5R)-12-butyl-5-ethyl-9-fluoro-5-hydroxy-4,5,13,15-tetrahydro-1H,3H-oxepino[3′,4′:6,7]indolizino[1,2-b]quinoline-3,15-dione] are within 1.5-fold of each other in IC50: 8.6 nM for the first, 9.5 nM for the second.

`CCc1c2c(nc3cc(F)ccc13)-c1cc3c(c(=O)n1C2)COC(=O)C[C@]3(O)CC` [Example 106, (5R)-5,12-diethyl-9-fluoro-5-hydroxy-4,5,13,15-tetrahydro-1H,3H-oxepino[3′,4′:6,7]indolizino[1,2-b]quinoline-3,15-dione] and `CC[C@@]1(O)CC(=O)OCc2c1cc1n(c2=O)Cc2c-1nc1cc(F)ccc1c2CCc1ccccc1` [Example 140, (5R)-5-ethyl-9-fluoro-5-hydroxy-12-phenethyl-4,5,13,15-tetrahydro-1H,3H-oxepino[3′,4′:6,7]indolizino[1,2-b]quinoline-3,15-dione] are within 1.5-fold of each other in IC50: 3.5 nM for the first, 3.2 nM for the second.

`CC[C@@]1(O)CC(=O)OCc2c1cc1n(c2=O)Cc2c-1nc1cc(F)ccc1c2-c1ccc(F)cc1` [Example 115, (5R)-5-ethyl-9-fluoro-12-(4-fluorophenyl)-5-hydroxy-4,5,13,15-tetrahydro-1H,3H-oxepino[3′,4′:6,7]indolizino[1,2-b]quinoline-3,15-dione] and `CC[C@@]1(O)CC(=O)OCc2c1cc1n(c2=O)Cc2c-1nc1cc(F)ccc1c2-c1cc(F)cc(F)c1` [Example 117, (5R)-12-(3,5-difluorophenyl)-5-ethyl-9-fluoro-5-hydroxy-4,5,13,15-tetrahydro-1H,3H-oxepino[3′,4′:6,7]indolizino[1,2-b]quinoline-3,15-dione] are within 1.5-fold of each other in IC50: 0.26 nM for the first, 0.25 nM for the second.
